The values that follow come from patent publication EP3546478A1, “NEW PEPTIDE DERIVATIVES OF PLATELET DERIVED GROWTH FACTOR (PDGF), A METHOD FOR THEIR PREPARATION, PHARMACEUTICAL COMPOSITIONS CONTAINING THEM AND APPLICATION OF THESE COMPOSITIONS” (Uniwersytet Gdanski, priority 2018, dated 2019).

Positions of bridges follow the written chain, without caps; N, C: chain ends. Residues, ends and D or L forms follow the SMILES beside them. Chains are numbered I, II in the order given. No end group written: not given here.

The subject of one series is dendritic cells. It is filed as cell-based, human. As for the experimental part: Tests were conducted on human peripheral blood mononuclear cells (PBMC), isolated from "buffy coats" using a ficoll density gradient (histopaque, Sigma). Following two wash steps (in PBS), erythrocyte lysis and cell counting (cell counter, Bio-Rad), the PBMCs were seeded onto a 24-well culture plate at a density of 1 mln cells/1 ml of RPMI 1640 (P/S, 10% FBS)/well. Thecells were then allowed to adapt to the culture conditions for the next 24h. After cell resting, PDGF2 was added to the wells in a final concentration of 1.0 µg/ml, and the cells were incubated for the next 48h under appropriate conditions (37°C, 5% CO2). The untreated cells constituted a negative control, whereas cells stimulated with LPS (1 µg/ml) and PHA (2,5 µg/ml) were a positive control. After incubation, the PBMCs were collected, washed with PBS, counted and prepared for flow cytometry analysis under the following conditions: 10^4 cells/ 100µl were stained with monoclonal, fluorochrome-stained antibodies (anti-CD3, CD4, CD8, CD16, CD56, CD25, CD69, CD71, HLA-DR, CD11c, CD80, CD83). Following 30 min of incubation at RT in the dark, the cells were analyzed using a flow cytometer (LSRFortessa, BD).
An analysis of peptide impact on the activity of immune cells was performed on human PBMCs. These cells were incubated with PDGF2 (1.0 ug/ml) for 48h and the effects of stimulation were evaluated by flow cytometry. […]

The subject of the next series is 46BR.1N fibroblasts. It is filed as cell-based, human. Conditions: 0.1, 1 and 10 µg / ml after 48h and 72h. As for the experimental part:
(§1) The effect of PDGF derivatives (PDGF1, […]1, PDGF2, PGDF3, PDGF2_NE, PDGF2-HTT) on the proliferation of immortalized human 46BR.1N skin fibroblast cells, HaCaT skin keratinocytes (for each peptide 4 experimental cycles for HaCaT and 46BR.1N cells) and primary skin fibroblasts (for each peptide 4 experimental cycles, usingcells isolated from 4 patients) was investigated. Their cytotoxicity to these cells was also checked. The cells were incubated with peptides previously dissolved in double-distilled, sterile water. Proliferation tests (XTT test) were performed at the following concentrations: 0.01, 0.1, 1, 10, 25, 50, 100 and 150 μg / ml. Cytotoxicity tests (LDH) were performed at concentrations of 50, 100 and 150 μg / ml.

A further series relates to HaCaT keratinocytes. The series is classed as cell-based, human. The protocol: as §1
The next series has as its system primary skin fibroblasts. The series can be described thus: XTT proliferation test. It is filed as cell-based, human. The protocol: as §1
On the technique in general: Tetrazolium assays rely on reduction of a dye to a coloured formazan, in cell work by metabolically active cells.

Series [1] relates to human primary dermal fibroblasts. Nature of the series: Chemotaxis through culture inserts, calcein fluorometry. The series is classed as cell-based. The following applies: 1 µg / ml, 24 hours of incubation. The protocol: The effect of the compound PDGF2 compound at a concentration of 1 µg / ml on the chemotaxis of HaCaT keratinocytes, and the effect of PDGF2 and PDGF3 at a concentration of 1 µg / ml on the chemotaxis of primary fibroblasts, were investigated. Cells were "starved" in serum-free medium for 24 hours before the experiment. They were then seeded in serum-free medium in culture inserts (Grainer bio one, 8 µm) placed in a 24-well plate. Serum-free medium containing PDGF2 or PDGF3 was added to the wells. Controls in the test were: serum free medium and medium containing 10% FBS. After 24 hours of incubation, the cells were stained with calcein. Cells that migrated through the insert membrane were then detached with trypsin and a fluorometric measurement was performed (excitation wavelength 485, emission wavelength 520 nm).

Setting [2] is: XTT test, 0.01 to 150 µg / ml tested, result in words.

On to “RLIDRTNANFL-NH2 [PDGF2, R^1L^2I^3D^4R^5T^6N^7A^8N^9F^10L^11-NH2]”, for which, in the series on dendritic cells, the “activation of dendritic cells (CD80, CD83)” value is reported as “not activated”.

On to `CC[C@H](C)[C@H](NC(=O)[C@H](CC(C)C)NC(=O)[C@@H](N)CCCNC(=N)N)C(=O)N[C@@H](CC(=O)O)C(=O)N[C@@H](CCCNC(=N)N)C(=O)N[C@H](C(=O)N[C@@H](CC(N)=O)C(=O)N[C@@H](C)C(=O)N[C@@H](CC(N)=O)C(=O)N[C@@H](Cc1ccccc1)C(=O)N[C@@H](CC(C)C)C(=O)NCCCC[C@H](NC(=O)[C@H](CCCNC(=N)N)NC(C)=O)C(=O)N[C@H](C(=O)N[C@@H](CCC(=O)O)C(=O)N[C@H](C(=O)N[C@H](C(=O)N[C@@H](CCCNC(=N)N)C(=O)N[C@@H](CCCCN)C(=O)N[C@@H](CCCCN)C(=O)N1CCC[C@H]1C(=O)N[C@H](C(=O)N[C@@H](Cc1ccccc1)C(N)=O)[C@@H](C)CC)C(C)C)[C@@H](C)CC)[C@@H](C)CC)[C@@H](C)O` [PDGF3] (I: Ac-RKIEIVRKKPIF-NH2 / II: H-RLIDRTNANFL; amide I:2-II:C), for which the “increase in proliferation relative to control” value in the series with 46BR.1N fibroblasts is on record as 20-40%; with HaCaT keratinocytes (0.1, 1, 10 and 25 µg / ml after 48h, 0.1, 1, 10, 25, 50, 100 and 150 µg / ml after 72h) it was 20-120%; in the series with primary skin fibroblasts (1, 10, 25 and 50 µg / ml after 48h and 72h), 10-60%. The inhibition of proliferation result with HaCaT keratinocytes (setting [2]) and in the series with primary skin fibroblasts (setting [2]) was “does not inhibit the proliferation” throughout. In series [1], the effect on chemotaxis entry is listed as “inhibit the chemotaxis”.
